Laboratory results published in ChEMBL document CHEMBL4418912, “Methods of identifying antagonists of the hTAS2R46 bitter taste receptor” (2014).
Active and inactive are the calls of the source. The rule behind the calls is not given here.

Legend:
Format in all cases: functional, cell-based
[1] = target: T1, Taste receptor type 2 member 5 (Homo sapiens) (UniProt Q9NYW4); experiment: Potentiation of denatonium saccharide-induced agonist activity at recombinant human N-terminal rat ST3 receptor-fused TAS2R5 expressed in HEK293T cells co-expressing Galpha16gust44 assessed as increase in intracellular calcium level at 100 uM by FLIPR assay
T1 sequence (whole entry): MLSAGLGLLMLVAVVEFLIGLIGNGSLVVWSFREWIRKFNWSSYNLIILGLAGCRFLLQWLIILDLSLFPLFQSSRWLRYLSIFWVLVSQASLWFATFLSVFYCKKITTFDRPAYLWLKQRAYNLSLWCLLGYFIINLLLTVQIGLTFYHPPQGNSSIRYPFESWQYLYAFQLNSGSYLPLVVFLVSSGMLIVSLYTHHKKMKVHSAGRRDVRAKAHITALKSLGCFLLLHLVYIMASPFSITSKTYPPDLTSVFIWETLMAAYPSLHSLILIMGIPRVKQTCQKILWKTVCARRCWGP

[2] = target: T2, Taste receptor type 2 member 9 (Homo sapiens) (UniProt Q9NYW1); experiment: Agonist activity at recombinant human N-terminal rat ST3 receptor-fused TAS2R9 expressed in HEK293T cells co-expressing Galpha16gust44 assessed as increase in intracellular calcium level at 100 uM by FLIPR assay
T2 sequence (whole entry): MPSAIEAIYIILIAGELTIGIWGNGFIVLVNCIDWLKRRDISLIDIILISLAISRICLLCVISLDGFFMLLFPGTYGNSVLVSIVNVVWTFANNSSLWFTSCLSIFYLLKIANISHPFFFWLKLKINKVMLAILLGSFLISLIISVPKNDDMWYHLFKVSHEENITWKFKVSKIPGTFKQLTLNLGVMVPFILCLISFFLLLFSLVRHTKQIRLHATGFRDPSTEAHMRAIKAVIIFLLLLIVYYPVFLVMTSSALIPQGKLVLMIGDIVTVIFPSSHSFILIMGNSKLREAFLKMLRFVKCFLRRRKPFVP

[3] = target: Taste receptor type 2 member 41 (Homo sapiens) (UniProt P59536); experiment: Agonist activity at recombinant human N-terminal rat ST3 receptor-fused TAS2R41 expressed in HEK293T cells co-expressing Galpha16gust44 assessed as increase in intracellular calcium level at 100 uM by FLIPR assay
[4] = target: T3, Taste receptor type 2 member 7 (Homo sapiens) (UniProt Q9NYW3); experiment: Agonist activity at recombinant human N-terminal rat ST3 receptor-fused TAS2R7 expressed in HEK293T cells co-expressing Galpha16gust44 assessed as increase in intracellular calcium level at 100 uM by FLIPR assay
T3 sequence (whole entry): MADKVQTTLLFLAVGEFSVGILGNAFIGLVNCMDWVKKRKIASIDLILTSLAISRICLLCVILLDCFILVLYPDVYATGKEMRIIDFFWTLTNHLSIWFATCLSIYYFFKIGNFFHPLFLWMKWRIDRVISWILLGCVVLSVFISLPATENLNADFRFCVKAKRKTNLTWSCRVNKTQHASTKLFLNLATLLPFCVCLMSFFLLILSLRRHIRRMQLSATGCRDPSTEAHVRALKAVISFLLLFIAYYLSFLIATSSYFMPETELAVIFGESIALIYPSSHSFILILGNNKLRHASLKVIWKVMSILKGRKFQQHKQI

[5] = target: T4, Taste receptor type 2 member 1 (Homo sapiens) (UniProt Q9NYW7); experiment: Agonist activity at recombinant human N-terminal rat ST3 receptor-fused TAS2R1 expressed in HEK293T cells co-expressing Galpha16gust44 assessed as increase in intracellular calcium level at 100 uM by FLIPR assay
T4 sequence (whole entry): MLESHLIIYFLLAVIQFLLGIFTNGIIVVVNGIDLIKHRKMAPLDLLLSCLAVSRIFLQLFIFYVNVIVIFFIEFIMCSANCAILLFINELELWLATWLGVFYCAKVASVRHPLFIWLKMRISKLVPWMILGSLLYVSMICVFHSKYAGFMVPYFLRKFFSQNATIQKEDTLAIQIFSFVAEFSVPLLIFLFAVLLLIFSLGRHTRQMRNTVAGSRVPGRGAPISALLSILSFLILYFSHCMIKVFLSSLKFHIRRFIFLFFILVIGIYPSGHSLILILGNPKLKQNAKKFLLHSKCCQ

[6] = target: T5, Taste receptor type 2 member 13 (Homo sapiens) (UniProt Q9NYV9); experiment: Agonist activity at recombinant human N-terminal rat ST3 receptor-fused TAS2R13 expressed in HEK293T cells co-expressing Galpha16gust44 assessed as increase in intracellular calcium level at 100 uM by FLIPR assay
T5 sequence (whole entry): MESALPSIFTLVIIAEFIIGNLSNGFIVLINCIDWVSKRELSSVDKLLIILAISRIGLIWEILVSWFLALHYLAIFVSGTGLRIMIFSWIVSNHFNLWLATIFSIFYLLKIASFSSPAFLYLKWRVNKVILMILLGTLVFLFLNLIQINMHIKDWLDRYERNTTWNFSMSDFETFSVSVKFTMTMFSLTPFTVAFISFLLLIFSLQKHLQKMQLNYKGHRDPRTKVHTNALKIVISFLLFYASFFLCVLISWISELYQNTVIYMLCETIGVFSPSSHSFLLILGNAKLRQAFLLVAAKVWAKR

[7] = target: Taste receptor type 2 member 60 (Homo sapiens) (UniProt P59551); experiment: Agonist activity at recombinant human N-terminal rat ST3 receptor-fused TAS2R60 expressed in HEK293T cells co-expressing Galpha16gust44 assessed as increase in intracellular calcium level at 100 uM by FLIPR assay
[8] = target: T6, Taste receptor type 2 member 10 (Homo sapiens) (UniProt Q9NYW0); experiment: Competitive-antagonist activity at recombinant human N-terminal rat ST3 receptor-fused TAS2R10 expressed in HEK293T cells co-expressing Galpha16gust44 assessed as inhibition of strychnine-induced increase in intracellular calcium level by measuring maximum signal amplitude at 10 uM by FLIPR assay (reference value: 0.42 +/- 0.09 a.u.)
T6 sequence (whole entry): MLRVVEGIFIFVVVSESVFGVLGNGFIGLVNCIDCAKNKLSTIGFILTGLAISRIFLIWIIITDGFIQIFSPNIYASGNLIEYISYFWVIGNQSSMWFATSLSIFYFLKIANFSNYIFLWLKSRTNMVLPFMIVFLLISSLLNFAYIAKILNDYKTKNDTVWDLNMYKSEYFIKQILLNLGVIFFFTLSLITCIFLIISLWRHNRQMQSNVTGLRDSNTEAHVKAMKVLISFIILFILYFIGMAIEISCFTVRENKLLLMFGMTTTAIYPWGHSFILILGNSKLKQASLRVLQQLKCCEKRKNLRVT

Chain of Taste receptor type 2 member 41 (Homo sapiens) (P59536 whole entry, the tested form may be a part): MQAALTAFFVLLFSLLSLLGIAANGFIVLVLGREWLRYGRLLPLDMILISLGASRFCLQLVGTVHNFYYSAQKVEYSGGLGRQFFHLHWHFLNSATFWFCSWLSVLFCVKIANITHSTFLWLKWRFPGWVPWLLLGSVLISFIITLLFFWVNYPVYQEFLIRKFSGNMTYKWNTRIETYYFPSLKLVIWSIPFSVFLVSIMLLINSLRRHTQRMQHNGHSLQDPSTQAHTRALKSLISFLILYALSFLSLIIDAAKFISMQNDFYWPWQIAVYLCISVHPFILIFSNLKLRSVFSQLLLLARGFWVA
Chain of Taste receptor type 2 member 60 (Homo sapiens) (P59551 whole entry, the tested form may be a part): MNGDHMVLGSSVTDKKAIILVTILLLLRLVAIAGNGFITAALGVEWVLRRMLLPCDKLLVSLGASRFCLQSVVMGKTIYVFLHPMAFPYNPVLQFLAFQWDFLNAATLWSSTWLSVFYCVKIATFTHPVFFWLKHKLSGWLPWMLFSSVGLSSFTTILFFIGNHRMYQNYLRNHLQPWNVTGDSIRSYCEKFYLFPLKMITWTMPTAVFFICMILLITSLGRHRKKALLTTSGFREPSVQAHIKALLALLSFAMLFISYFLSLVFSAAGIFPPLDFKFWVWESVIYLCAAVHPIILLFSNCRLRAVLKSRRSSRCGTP

In the case of `C/C1=C\C[C@H](O)/C(C)=C/[C@H]2OC(=O)[C@@H](C)[C@@H]2CC1`, the Activity [1] is reported as “Active”, the Activity [2] is reported as “inactive” and the Activity [3] is reported as “inactive”. For the same compound, the Activity [4] was “Active”, the Activity [5] was “Active” and the Activity [6] was “inactive”. The Activity [7] was “inactive” and the Activity [8] was 0.4 a.u.
